# Key:
# [1] = method code SF-AS, from DOI: 10.1016/s0928-0987(01)00170-1, PMID: 11500262; details: pH 12.5
# [2] = method code SF, from DOI: 10.1248/cpb.35.4144, PMID: 3435941; details: pH 6.8
# [3] = method code SF-AS, from PMID: 10944786; details: pH 7.0
# [4] = method code SF-RC, from DOI: 10.1021/es00096a007
# [5] = pH 7.4
# [6] = method code SF, from DOI: 10.1007/978-94-011-1472-1_81
# [7] = method code SF-RC, from DOI: 10.1016/j.nucmedbio.2012.01.004, PMID: 22336372; details: pH 7.4
# [8] = method code SF-HPLC, from DOI: 10.1002/jps.2600840622; details: pH 7.0
# [9] = method code SF-AS, from DOI: 10.1007/bf02273190
# [10] = not given; remark: listed apart in the source
# [11] = not given; remark: listed apart in the source
# [12] = method code SF-RC, from DOI: 10.1016/j.bmc.2005.04.014, PMID: 15911305; details: pH 7.4
# [13] = from Kyomura, N., Fukuchi, T., Kohyama, Y., & Motojima, S. (1990). Biological characteristics of new acaricide MK-239. In Brighton Crop Protection Conference, Pests and Diseases - 1990 (Vol. 1, pp. …
# [14] = method code SF-LC/MS, from DOI: 10.1021/jm4008714, PMID: 23919803; details: pH 7.4
# [15] = not given; remark: listed apart in the source
# [16] = from Ammermann, E., Loecher, F., Lorenz, G., Janssen, B., Karbach, S., & Meyer, N. (1990). BAS 480 F - a new broad spectrum fungicide. In Brighton Crop Protection Conference, Pests and Diseases - 1990 …; details: pH 7.0
# [17] = not given; remark: listed apart in the source
# [18] = method code SF-GR, from DOI: 10.1021/jm00199a032, PMID: 619145
# [19] = not given; remark: listed apart in the source
# [20] = method code SF-RC, from PMID: 14530489; details: pH 7.4
# [21] = method code SF-AS, from DOI: 10.1213/00000539-199008000-00008, PMID: 2375517
# [22] = not given; remark: listed apart in the source
# [23] = not given; remark: listed apart in the source
# [24] = method code SF-RC, from DOI: 10.1021/jm070025+, PMID: 17411026; details: pH 7.4
# [25] = method code SF-AS, from PMID: 872227; details: pH 7.2
# [26] = not given; remark: listed apart in the source
# [27] = method code SF-AS, from DOI: 10.1021/jm00099a010, PMID: 1433194; details: pH 7.4
# [28] = not given; remark: listed apart in the source
# [29] = not given; remark: listed apart in the source
# [30] = method code SF-GLC, from DOI: 10.1556/jpc.23.2010.3.6
# [31] = method code SF-AS, from DOI: 10.1248/cpb.39.458, PMID: 1829027; details: pH 7.0
# [32] = method code SF-AS, from Zsuzsa, H.; Nora, K. (1979). Study on the partition coefficient of acetanilides. Nehezvegyp. Kut. Intez. Kozl., 8, 139-146.
# [33] = not given; remark: listed apart in the source
# [34] = not given; remark: listed apart in the source
# [35] = method code SF-RC, from DOI: 10.1002/jlcr.1932; details: pH 7.4
# [36] = not given; remark: listed apart in the source
# [37] = not given; remark: listed apart in the source
# [38] = not given; remark: listed apart in the source
# [39] = not given; remark: listed apart in the source
# [40] = not given; remark: listed apart in the source
# [41] = method code SF-AS, from DOI: 10.1016/0378-5173(92)90099-n
# [42] = method code SF-AS, from DOI: 10.1021/jm00170a024, PMID: 2374146
# [43] = not given; remark: listed apart in the source
# [44] = not given; remark: listed apart in the source
# [45] = not given; remark: listed apart in the source
# [46] = method code SF-RC, from DOI: 10.1016/s0969-8051(99)00046-3, PMID: 10628564; details: pH 7.4
# [47] = not given; remark: listed apart in the source
compound,measurement,setting,value
CN(C)CCC(c1ccccc1)c1ccccc1,logD,[1],5.4
COC(=O)C1=C(C)NC(C)=C(P2(=O)OCCCO2)C1c1ccccc1[N+](=O)[O-] (stereo not drawn),logD,[2],1.3
CCCCOc1cccc(NC(=O)OCN2CCCCC2)c1,logD,[3],2.97
Nc1cc2c3ccccc3ccc2c2ccccc12,logP,[4],4.98
CCCCSCS(=O)CC(CO)NC(=O)C=Cc1c(C)[nH]c(=O)[nH]c1=O (stereo not drawn),logD,[5],0.14
Cc1cccc2c1Sc1ccccc1C2NC(=O)CN(C)C (stereo not drawn),logP,[6],3.24
C#CCN(CCF)c1ccc(S(=O)c2ccc([N+](=O)[O-])cc2)cc1 (stereo not drawn),logD,[7],2.6
CCN1CCN(c2cc3c(cc2F)c(=O)c(C(=O)O)cn3CC)CC1,logD,[8],0.37
CCCCCCC(=O)N(C)c1ccc(S(=O)(=O)N(C)C)cc1,logP,[9],2.61
O=C(O)c1cc(/N=N/c2ccc(S(=O)(=O)Nc3ccccn3)cc2)ccc1O,logP,,-0.13
COc1c(OC)c(OC(C)=O)c2cc(NC(C)=O)ccc2c1OC(C)=O,logP,[10],2
COc1ccc2c3c1O[C@H]1[C@@H](O)C=C[C@H]4[C@@H](C2)N(C)CC[C@@]341,logP,[11],1.22
Nc1nc(OCc2cccc(I)c2)c2ncn(C3CC(O)C(CO)O3)c2n1 (stereo not drawn),logD,[12],1.4
CCc1nn(C)c(C(=O)NCc2ccc(C(C)(C)C)cc2)c1Cl,logP,[13],4.61
Cn1c(=O)nc(-c2ccccc2)c2oc3ccccc3c21,logD,[14],2.8
CN1CC[C@]23c4c5ccc(O)c4O[C@H]2C(=O)CC[C@@]3(O)[C@H]1C5,logP,[15],0.67
Fc1ccc([C@]2(Cn3cncn3)O[C@H]2c2ccccc2Cl)cc1 (stereo in doubt),logD,[16],3.44
COC(=O)C1C2CC3CCC1N3CC2=Cc1ccc(I)c(Cl)c1 (stereo not drawn),logP,[17],4.25
S=P(NN=Cc1ccccn1)(NN=Cc1ccccn1)Oc1ccccc1,logP,[18],1.62
CC(Oc1ccccc1)C(=O)N[C@@H]1C(=O)N2[C@@H]1SC(C)(C)[C@@H]2C(=O)O (stereo partly drawn),logP,[19],2.19
CS(=O)(=O)c1ccc(-c2ccsc2-c2ccc(F)cc2)cc1,logD,[20],3.72
CCCN1CCCC[C@H]1C(=O)Nc1c(C)cccc1C,logP,[21],2.89
CC(C)(Oc1ccccc1)C(=O)N[C@@H]1C(=O)N2[C@@H]1SC(C)(C)[C@@H]2C(=O)O,logP,[22],2.76
CC[C@@H](c1ccc(O)cc1)[C@H](CCF)c1ccc(O)cc1,logP,[23],4.03
CN(C)c1ccc(/C=C/c2cnc(OCCO)c(I)c2)cc1,logD,[24],2.64
CCCOc1ccc(NC(=O)OCCN2CCOCC2)c(C)c1,logD,[25],2.21
CCCCCCCCCCCCCCOC(=O)C(C)O (stereo not drawn),logP,[26],6.08
CN1CCN(Cc2ccc(C(=O)c3csc(S(N)(=O)=O)c3)cc2)CC1,logD,[27],0.37
CC12CCC3c4ccc(O)cc4CCC3C1CC(F)C2O (stereo not drawn),logP,[28],2.98
CN1CCN2c3ccccc3Cc3ccccc3C2C1 (stereo not drawn),logP,[29],4
CCCCCCCCCCCCCCCCO,logP,[30],7
CCCC(=O)OC[C@H]1O[C@@H](n2cc(F)c(=O)[nH]c2=O)C[C@@H]1OC(=O)CCC,logD,[31],1.9
CC(Cl)C(=O)N(CC(=O)Nc1ccccc1)c1ccccc1 (stereo not drawn),logP,[32],3.02
CCCCC(CC)COC(=O)c1ccc(N(C)C)cc1 (stereo not drawn),logP,[33],6.6
CCCN(CCC)P(=O)(OC(C)CC)c1ccccc1 (stereo not drawn),logP,[34],4.13
O=C(OCC1=CC(=O)c2ccccc2C1=O)c1ccc(F)cc1,logD,[35],2.7
Cc1cc2c(s1)Nc1ccccc1N=C2N1CCN(C)CC1,logP,[36],3
c1ccc(C2=NOC3COC(c4ccccc4)OCC23)cc1 (stereo not drawn),logP,[37],3.42
CCCCCCCC(=O)N[C@@H]1C(=O)N2[C@@H]1SC(C)(C)[C@@H]2C(=O)O,logP,[38],3.32
Clc1ccc(COC(Cn2ccnc2)c2ccc(Cl)cc2Cl)c(Cl)c1 (stereo not drawn),logP,[39],5.81
COC1=CC(=NO)CC(C)C12Oc1c(Cl)c(OC)cc(OC)c1C2=O (stereo not drawn),logP,[40],2.31
CCn1cc(C(=O)O)c(=O)c2cc(F)c(N3CCN(C)CC3)c(F)c21,logP,[41],0.3
CCOP(=O)(Cc1ccc(-c2nc3ccccc3s2)cc1)OCC,logP,[42],3.5
CC1C=COC1C(=O)Nc1cccc(-c2nc3ncccc3o2)c1 (stereo not drawn),logP,[43],2.9
O=C1/C(=C/c2cccc(Cl)c2)CCCc2ccccc21,logP,[44],5.22
Cc1ccccc1C(OCCN(C)C)c1ccccc1 (stereo not drawn),logP,[45],3.77
CN1CCN(C(=O)OC2c3nccnc3C(=O)N2c2ccc(I)cn2)CC1 (stereo not drawn),logD,[46],1.6
c1ccc2c(c1)Cc1c-2ccc2ccccc12,logP,[47],5.32
